This is an account of results in publication PMC10218596 (International Journal of Molecular Sciences, 2023).

The target of one test is T1, hα6/α3β4 (Homo sapiens, UniProt P30926+P32297+Q15825).
T1 construct: splicing the N-terminal extracellular domain of the α6 subunit with the α3 subunit; host or cells: Xenopus laevis oocytes injected with cRNA (1:1)
The experiment in a line: Electrophysiological assay, ACh concentration-response (Xenopus oocytes). In kind it is cell-based. Particulars: ACh on hα6/α3β4.

The next test concerns the target h[α6I56V/α3]β4 (Homo sapiens, UniProt P30926+Q15825, I89V, form not given). In kind it is cell-based. The settings on record: ACh on h[α6I56V/α3]β4.

h[α6I56V/α3]β4, sequence (Q15825 26-239 I89V, form open): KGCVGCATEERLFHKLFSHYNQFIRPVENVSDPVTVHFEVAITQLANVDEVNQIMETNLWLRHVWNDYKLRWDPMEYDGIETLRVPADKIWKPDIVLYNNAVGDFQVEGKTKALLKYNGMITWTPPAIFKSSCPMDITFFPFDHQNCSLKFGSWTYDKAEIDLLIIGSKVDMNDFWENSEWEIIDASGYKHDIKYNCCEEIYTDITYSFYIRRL
h[α6I56V/α3]β4, sequence (P30926 22-498, form open): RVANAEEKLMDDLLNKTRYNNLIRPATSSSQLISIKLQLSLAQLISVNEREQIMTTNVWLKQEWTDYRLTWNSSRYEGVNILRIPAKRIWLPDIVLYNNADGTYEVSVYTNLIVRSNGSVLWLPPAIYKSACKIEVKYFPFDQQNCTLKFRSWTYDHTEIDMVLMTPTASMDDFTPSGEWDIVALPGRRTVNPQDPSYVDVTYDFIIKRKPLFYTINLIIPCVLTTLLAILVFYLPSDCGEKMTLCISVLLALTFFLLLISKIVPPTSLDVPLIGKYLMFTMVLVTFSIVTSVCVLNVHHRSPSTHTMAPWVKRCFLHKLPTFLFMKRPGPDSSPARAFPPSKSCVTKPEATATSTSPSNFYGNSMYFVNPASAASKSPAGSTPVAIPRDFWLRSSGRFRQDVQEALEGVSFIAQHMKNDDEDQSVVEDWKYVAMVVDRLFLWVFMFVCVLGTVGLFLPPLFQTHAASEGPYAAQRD
h[α6I56V/α3]β4, sequence (P32297 241-505 partner, form open): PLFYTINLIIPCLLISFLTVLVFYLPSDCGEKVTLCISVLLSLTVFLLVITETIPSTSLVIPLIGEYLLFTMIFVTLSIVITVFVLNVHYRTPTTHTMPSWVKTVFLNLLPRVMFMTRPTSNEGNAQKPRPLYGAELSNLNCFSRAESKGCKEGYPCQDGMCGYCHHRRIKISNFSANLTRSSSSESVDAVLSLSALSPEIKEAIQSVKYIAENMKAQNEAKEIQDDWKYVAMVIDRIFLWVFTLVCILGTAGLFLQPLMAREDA
T1 sequence (Q15825+P32297 fused with the stated changes): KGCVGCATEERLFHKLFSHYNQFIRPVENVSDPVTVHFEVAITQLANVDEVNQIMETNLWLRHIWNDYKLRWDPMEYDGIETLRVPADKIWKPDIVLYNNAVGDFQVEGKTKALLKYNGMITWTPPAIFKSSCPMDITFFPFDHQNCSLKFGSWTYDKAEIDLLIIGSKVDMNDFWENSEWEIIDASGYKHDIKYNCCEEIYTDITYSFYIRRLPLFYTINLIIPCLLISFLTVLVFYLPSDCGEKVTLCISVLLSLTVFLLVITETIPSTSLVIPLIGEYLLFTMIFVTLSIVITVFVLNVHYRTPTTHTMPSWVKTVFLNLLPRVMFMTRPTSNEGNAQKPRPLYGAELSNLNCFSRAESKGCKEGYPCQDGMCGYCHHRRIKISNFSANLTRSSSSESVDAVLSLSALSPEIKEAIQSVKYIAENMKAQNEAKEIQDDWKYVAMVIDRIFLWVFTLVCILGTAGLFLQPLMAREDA
T1 sequence (P30926 22-498): as the sequence (P30926 22-498, form open) above

For `CC(=O)OCC[N+](C)(C)C` [ACh, acetylcholine chloride], the “Hill Slope” value at hα6/α3β4 is reported as 1.4 (1.2–1.7); on h[α6I56V/α3]β4 it was 1.3 (1.1–1.5).
